This experiment concerns Pseudomonas putida biofilms. It counts as cell-based. As for the experimental part:
In this work the efficacy of the agents alone and in combination were determined by measuring the number of viable cells in model biofilms remaining after treatment. The Minimum Biofilm Eradication value (MBEC) is defined as a 95% reduction in the number of viable cells compared to the untreated control. The relatively non-toxic dispersants are unable to reach that level of killing with physically possible concentrations, thus for those agents the MBEC is considered the highest value tested. Since this value is used as the divisor in the synergy index equation this highest tested value is actually an underestimate of the MBEC and thus synergy index values are also […].
Dose response studies were performed to determine the Minimum Biofilm Eradication Concentration (MBEC) for monochloramine and SDBS alone. The MBEC is defined as the concentration of agent that reduces the viable biofilm population by 95% of the untreated control value as measured by viable plate counts. Experiments were then performed to determine the result of combining the two agents, oxidizing biocide monochloramine and dispersant SDBS, on biofilm populations. The experiments examined three concentrations of monochloramine with four concentrations of SDBS. The SDBA used in the examples was Bio-Soft™ D-4 (Stepan Company, Northfield, Ill.).
M9YG media is a simple minimal salt medium supplemented with 500 mg/L glucose and 0.01% yeast extract. The salts composition is intended to mimic a typical cooling tower water composition. The composition of the media is made using the following procedure: 5XM9 salt composition is mixed using 64 gm Na2HPO4.7H2O, 15 grams KH2PO4, 2.5 gm NaCl and 5 grams NH4Cl in one liter of water. This is divided into 200 ml aliquots and sterilized (by autoclave). To 750 ml of sterile deionized water is added the sterile supplement solutions while stirring. A white precipitate will appear on addition of the CaCl2 but will dissolve with stirring. Supplement solution is 200 ml of 5XM9 composition, 2 ml of 1M MgSO4, 0.1 ml of 1M CaCl2, 20 ml of 20% glucose, 1 ml of 10% yeast extract, and enough water to make 1000 ml of solution. […]
Biofilms were grown on stainless steel 316 coupons in a CDC Biofilm reactor using M9YG minimal salts growth media for a period of twenty-four hours. […] Viable cells released into the fluid were then determined by a plating method.
Synergy indices were calculated as described in Kull et al. as in example 1.
Dose response studies were performed to determine the Minimum Biofilm Eradication Concentration (MBEC) for monochloramine/dichloramine blend (MCA/DCA) and SDBS alone. The MBEC is defined as the concentration of agent that reduces the viable biofilm population by 95% of the untreated control value as measured by viable plate counts. […]

Read-outs that look alike come from different tables or passages of the source.

Sodium dodecylbenzenesulfonates [SDBS]: the “% Biofilm reduction” value reads like this: (Example 1, 312 mg/L SDBS alone) 48.62%; (Example 2, 312 mg/L SDBS alone) 84.58%.
Consider `NCl` [MCA, monochloramine], for which the “% Biofilm reduction” value is, setting by setting: (Example 1, 20 mg/L MCA alone) 93.58%; (Example 1, 20 mg/L MCA alone, listed as monochloramine) “greater than 90%”.
